Assay results: patent US20220370395A1, “ENHANCER OF PHOTODYNAMIC EFFECT IN ALA-PDT OR ALA-PDD” (SBI PHARMACEUTICALS CO., LTD., priority 2017, published 2022)

Experiments:
[1] = cited from earlier work
[2] = tested on: cancer cell strains DU145, HT29, HCC2998, MKN7, MDA-MB-231, MCF-7; experiment: Intracellular and extracellular PpIX amount in cancer cell strains, ALA plus serial dilutions of inhibitor (Examples 1, 3, 4, 5); format: cell-based; settings: in combination with 1 mM ALA; for extracellular PpIX amount (corrected with amount of protein) / intracellular PpIX amount (corrected with amount of protein): cultured 4 hours, compared to ALA alone, six cancer cell strains
From the text: Six types of cells strains were employed as cancer cell strains: […], large intestine cancer cell strains (HT29, HCC2998), stomach cancer cell strain (MKN7), and mammary gland cancer cell strains (MDA-MB-231, MCF-7). For the medium, RPMI 1640 (from Wako) supplemented with 5% inactivated fetal bovine serum (FBS, from Biowest) was employed (hereinafter referred to as RPMI medium). Two types of inhibitors are known to exist for dynamin: one is an inhibitor that targets the GAS domain, whereas the other is an inhibitor that targets the PH domain. Iminodyn22 (from abcam) was used as the inhibitor that targets the GAS domain. Further, OcTMAB (from abcam) was used as the inhibitor that targets the PH domain.
To 1 mg of OcTMAB was added 255 μL of dimethyl sulfoxide (DMSO, from Wako), and this was mixed to make an OcTMAB 10 mM stock solution. Further, to 1 mg of Iminodyn22 was added 208 μL of DMSO, and this was mixed to make an Iminodyn22 10 mM stock solution. The OcTMAB 10 mM stock solution was diluted with the RPMI medium to adjust to 16 μM. The Iminodyn22 10 mM stock solution was diluted with the RPMI medium to adjust to 40 μM. The OcTMAB and Iminodyn22 prepared were each serially diluted with the RPMI medium to create six serial dilutions. Each of these dynamin inhibitor-containing medium was mixed with an equal amount of the RPMI medium comprising 2 mM aminolevulinic acid hydrochloride salt (ALA) to prepare ALA/OcTMAB and ALA/Iminodyn22-containing mediums.
Each cancer cell strain was seeded in a 96-well plate (black with transparent bottom; from Corning) at a density of 1.25×10^4 cells/well (only MDA-MB-231 was seeded at 2.0×10^4 cells/well), and this was cultured overnight at 37° C. After the overnight culture, the culture supernatant was removed, 200 μL each of ALA/OcTMAB-containing medium or ALA/Iminodyn22-containing medium described above were added to each well, and this was cultured for 4 hours under a 37° C. condition. After 4 hours, 100 μL of each culture supernatant were transferred to another 96-well plate, and this was set as the extracellular PpIX measuring plate. The remaining culture supernatant was removed, each cell strain was washed once with phosphate buffered saline (PBS, from Wako), and then 100 μL per well of 1% dodecyl sodium sulfate (SDS, from Wako) aqueous solution was added to dissolve the cells, and this was set as the intracellular PpIX measuring plate. Protoporphyrin IX standard sample (PpIX, from Funakoshi Co., Ltd.) was dissolved in DMSO solution to create 1 mM PpIX stock solution. The 1 mM PpIX stock solution was diluted with each of 1% SDS solution and RPMI medium, and PpIX standard solutions with final concentrations of 0-1000 nM were prepared. The PpIX standard solutions prepared with 1% SDS were added to unused wells in the intracellular accumulation PpIX measuring plate, and the standard solutions prepared with the RPMI medium were added to unused portions of the extracellular export PpIX measuring plate at 100 μL each. The fluorescence intensity of the intracellular PpIX measuring plate and the extracellular PpIX measuring plate was measured with a microplate reader (infinite M200PRO; from TECAN) under the condition of excitation light at 405 nm and measurement wavelength at 635 nm. After measurement, a standard curve was created from the fluorescence intensity of the PpIX standard solutions, and the amount of PpIX in each well was calculated from the standard curve.
In order to correct the amount of PpIX measured by the above method with the amount of protein, the amount of protein contained in each sample of the intracellular PpIX measuring plate was measured. Pierce™ BCA Protein Assay Kit (from Thermo Fisher) was used for measuring the amount of protein. BCA reagent A and BCA reagent B were mixed at a proportion of 50:1 to prepare the BCA reaction solution. […]

[3] = tested on: cancer cell strains DU145, HT29, HCC2998, MKN7, MDA-MB-231, MCF-7; experiment: Intracellular and extracellular PpIX amount, combination use of OcTMAB and FTC with ALA (Example 2); format: cell-based; settings: final concentration ALA 1 mM, OcTMAB 8 μM, FTC 10 μM, 4 hours; compared between combination use groups
Experimental: Six types of cells strains were employed as cancer cell strains: […], large intestine cancer cell strains (HT29, HCC2998), stomach cancer cell strain (MKN7), and mammary gland cancer cell strains (MDA-MB-231, MCF-7). Fumitremorgin C (FTC, from sigma) was dissolved in DMSO to create a 2 mM stock solution, and then adjusted to 40 μM with the RPMI medium. For OcTMAB, the 10 mM stock solution was adjusted with the RPMI medium to 32 μM. The 40 μM FTC-containing RPMI medium was added to an equal amount of 32 μM OcTMAB-containing medium to prepare a 16 μM OcTMAB/20 μM FTC-containing medium. Note that FTC is an inhibitor of ABCG2 (a transporter that extracellularly exports PpIX), and is known as a compound that has the effect of inhibiting extracellular export of PpIX.
Each cancer cell strain was seeded in a 96-well plate (black with transparent bottom) at a density of 1.25×10^4 cells/well (only MDA-MB-231 was seeded at 2.0×10^4 cells/well), and this was cultured overnight at 37/C. After the overnight culture, the culture supernatant was removed, 100 μL each of 2 mM ALA-containing RPMI medium was added to each well. […]
In order to correct the above PpIX amount measurement result with the amount of protein, the amount of protein in each sample for measuring the intracellular PpIX amount was measured. […]

| Structure (SMILES) | time until metabolized in vivo and excreted [1] | extracellular PpIX amount (corrected with amount of protein) [2] | intracellular PpIX amount (corrected with amount of protein) [2] | extracellular PpIX amount (PpIX extracellular export) [3] | intracellular PpIX amount [3] | inhibitor concentration at which the decrease of extracellular PpIX amount peaks ([2]; 4 hours) | inhibitor concentration at which the increase in the amount of PpIX accumulated peaks ([2]; 4 hours) |
| --- | --- | --- | --- | --- | --- | --- | --- |
| NCC(=O)CCC(=O)O [ALA, 5-aminolevulinic acid] | ≤ 48 h | – | – | – | – | – | – |
| N=c1oc2c(O)c(O)ccc2cc1C(=O)NCCCNC(=O)c1cc2ccc(O)c(O)c2oc1=N [iminodyn22] | – | no change in the intracellular and extracellular PpIX amounts | no change in the intracellular and extracellular PpIX amounts | – | – | – | – |
| CCCCCCCCCCCCCC[N+](C)(C)C.[Br-] [MiTMAB] | – | decrease of extracellular PpIX amount dependent on the concentration of MiTMAB | increase of intracellular PpIX amount dependent on the concentration of MiTMAB | – | – | – | – |
| CCCCCCCCCCCCCCCCCC[N+](C)(C)C.[Br-] [OcTMAB] | – | decrease of extracellular PpIX amount dependent on the concentration of OcTMAB | increase of intracellular PpIX amount dependent on the concentration of OcTMAB | effect similar to ETC for suppressing PpIX extracellular export | increased intracellular PpIX similar to or more than the ALA and ETC combination use group | – | – |
| O=c1[nH]c2ccccc2n1C1CCN(Cc2ccc(-c3nc4cc5nc[nH]c5cc4nc3-c3ccccc3)cc2)CC1 [Akt inhibitor VIII] | – | decrease of extracellular PpIX amount | increase in the amount of PpIX accumulated | – | – | ~5 µM | ~5 µM |
| CCCCCCCCCCCCCCCCCC[N+](C)(C)CCN1C(=O)[C@@H]2[C@H](C1=O)[C@H]1CC[C@@H]2O1.[Br-] [RTIL13] | – | decrease of extracellular PpIX amount dependent on the concentration of RTIL13 | increase in the amount of PpIX accumulated | – | – | – | ~10 µM |
